According to patent US10829520B2, “Beta-hairpin peptidomimetics” (POLYPHOR AG, priority 2015, dated 2020):
Where two headings read alike, the source gives them in different places. Where a SMILES comes first, the peptide text is derived from it. Bridges are numbered along the chain shown (N, C = ends). Roman numbers before positions name the chains, in order. [ ]: non-standard residue; d: D form. NMeW = CN[C@@H](Cc1c[nH]c2ccccc12)C(=O)O; Tle = CC(C)(C)[C@H](N)C(=O)O; dDab = NCC[C@@H](N)C(=O)O; Nle = CCCC[C@H](N)C(=O)O; Orn = NCCC[C@H](N)C(=O)O; Dab = NCC[C@H](N)C(=O)O; dAze = O=C(O)[C@H]1CCN1; Dap = NC[C@H](N)C(=O)O; Sar = CNCC(=O)O

Assays:
Type in all cases: cell-based
[1] = tested on: human red blood cells (hRBC); assay: Hemolysis of human red blood cells
In short: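 Hemolysis was read as supernatant absorbance at 540 nm and expressed as a percentage of Triton X-100 (2.5%) lysis. Washed human red cells (20% v/v) had been exposed to each peptide at 100 μg/mL for 1 h at 37° C.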

[2] = tested on: Escherichia coli ATCC 25922
In short: (§1)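 Read-out is the minimal inhibitory concentration in μg/mL, taken as the lowest peptide level without visible growth after 18-20 h at 35° C. Testing followed CLSI broth microdilution in cation-adjusted Mueller-Hinton II broth plus 0.002% Polysorbate 80, with roughly 10^6 CFU/mL.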

[3] = tested on: Pseudomonas aeruginosa ATCC 27853
In short: as §1

Escherichia coli 926415 = tested on: Escherichia coli 926415
[4] = tested on: Acinetobacter baumannii DSM 30008
In short: as §1

[5] = tested on: Klebsiella pneumoniae 968733
[6] = tested on: Acinetobacter baumannii 872842
[7] = tested on: Klebsiella pneumoniae SSI #3010
In short: as §1

[8] = clinical isolate, Mueller-Hinton II broth, P-80 0.002% present
[9] = red cells of human, 1 h, 100 μg/mL

| Structure (SMILES) | Hemolysis at 100 μg/mL ([1]; 100 μg/mL, 20% hRBC, 1 h at 37° C.) [%] | Escherichia coli ATCC 25922 MIC ([2]; Mueller-Hinton II broth) [mg/L] | Pseudomonas aeruginosa ATCC 27853 MIC ([3]; Mueller-Hinton II broth) [mg/L] | Escherichia coli 926415 MIC (Escherichia coli 926415; [8]) [mg/L] | Acinetobacter baumannii DSM 30008 MIC ([4]; Mueller-Hinton II broth) [mg/L] | Klebsiella pneumoniae 968733 MIC [5, 8] [mg/L] | Acinetobacter baumannii 872842 MIC [6, 8] [mg/L] | Klebsiella pneumoniae SSI #3010 MIC ([7]; Mueller-Hinton II broth) [mg/L] | Hemolysis at 100 μg/mL [1, 9] [%] | Escherichia coli ATCC 25922 MIC ([2]; ATCC 25922) [mg/L] | Pseudomonas aeruginosa ATCC 27853 MIC ([3]; ATCC 27853) [mg/L] | Escherichia coli 926415 MIC (Escherichia coli 926415; 926415) [mg/L] | Acinetobacter baumannii DSM 30008 MIC ([4]; DSM 30008) [mg/L] | Klebsiella pneumoniae 968733 MIC [5]; 968733 [mg/L] | Acinetobacter baumannii 872842 MIC [6]; 872842 [mg/L] | Klebsiella pneumoniae SSI #3010 MIC ([7]; SSI #3010) [mg/L] | Hemolysis at 100 μg/mL ([1]; red cells of human, 1 h, 100) [%] |
| --- | --- | --- | --- | --- | --- | --- | --- | --- | --- | --- | --- | --- | --- | --- | --- | --- | --- |
| CC(C)C[C@@H]1NC(=O)[C@@H](CC(C)C)NC(=O)[C@H](CCN)NC(=O)[C@@H](NC(=O)[C@H](CCN)NC(=O)CN(C)C(=O)[C@@H]2CSSC[C@H](N)C(=O)N[C@@H](Cc3c[nH]c4ccccc34)C(=O)N[C@@H](CCN)C(=O)N[C@@H](C(C)C)C(=O)N[C@H]3CSSC[C@H](NC(=O)[C@H](CC(C)C)NC(=O)[C@@H]4CCCN4C(=O)[C@H]4CCCN4C(=O)[C@H](CO)NC3=O)C(=O)N[C@@H](Cc3ccc(O)cc3)C(=O)N[C@@H](CCN)C(=O)N[C@@H](CCCN)C(=O)N2)CCNC(=O)[C@H]([C@@H](C)O)NC(=O)[C@H](CCN)NC(=O)[C@H](CCN)NC1=O [Ex. 212] (H-CW[Dab]VCS[dP]PLCY[Dab][Orn]C[Sar][Dab][Dab][Dab][dL]L[Dab][Dab]T; disulfide 1-14, 5-10; lactam 17-C) | 1 | 0.5 | 0.5 | 1 | 1 | 4 | 1 | 2 | – | – | – | – | – | – | – | – | – |
| CC(=O)N[C@@H](Cc1c[nH]c2ccccc12)C(=O)N[C@@H](CCN)C(=O)N[C@H](C(=O)N[C@H]1CSSC[C@@H](C(=O)N[C@@H](Cc2ccc(O)cc2)C(=O)N[C@@H](CCN)C(=O)N[C@@H](CN)C(=O)N[C@@H](CCN)C(=O)N[C@@H](CCN)C(=O)N[C@@H](CCN)C(=O)N[C@H]2CCNC(=O)[C@H]([C@@H](C)O)NC(=O)[C@H](CCN)NC(=O)[C@H](CCN)NC(=O)[C@H](CC(C)C)NC(=O)[C@@H](Cc3ccccc3)NC(=O)[C@H](CCN)NC2=O)NC(=O)[C@H](C(C)C)NC(=O)[C@@H]2CCCN2C(=O)[C@@H](Cc2ccc(O)cc2)NC(=O)[C@H]([C@@H](C)O)NC1=O)C(C)(C)C [Ex. 160] (Ac-W[Dab][Tle]CT[dY]PVCY[Dab][Dap][Dab][Dab][Dab][Dab][Dab][dF]L[Dab][Dab]T; disulfide 4-9; lactam 16-C) | – | – | – | – | – | – | – | – | <1 | 0.5 | 0.25 | 2 | 0.5 | 4 | 1 | 1 | – |
| CC(C)C[C@@H]1NC(=O)[C@@H](CC(C)C)NC(=O)[C@H](CCN)NC(=O)[C@@H](NC(=O)[C@H](CCN)NC(=O)[C@@H](NC(=O)[C@H](CCN)NC(=O)CN(C)C(=O)[C@@H]2CSSC[C@H](NC(=O)[C@@H](N)Cc3c[nH]c4ccccc34)C(=O)N[C@@H](C(C)C)C(=O)N[C@@H](C)C(=O)N[C@@H](CO)C(=O)N3CCC[C@@H]3C(=O)N3CCC[C@H]3C(=O)N[C@@H](CC(C)C)C(=O)N[C@@H](CO)C(=O)N[C@@H](Cc3ccc(O)cc3)C(=O)N2)[C@@H](C)O)CCNC(=O)[C@H](C(C)C)NC(=O)[C@H](CCN)NC(=O)[C@H](CCN)NC1=O [Ex. 179] (H-WCVAS[dP]PLSYC[Sar][Dab]T[Dab][Dab][Dab][dL]L[Dab][Dab]V; disulfide 2-11; lactam 16-C) | – | – | – | – | – | – | – | – | <1 | 0.0625 | 1 | 0.125 | 0.0625 | 0.5 | 0.0625 | 0.125 | – |
| CN[C@@H](Cc1c[nH]c2ccccc12)C(=O)N[C@@H](CCN)C(=O)N[C@H](C(=O)N[C@H]1CC(=O)NCC[C@@H](C(=O)N[C@@H](Cc2ccc(O)cc2)C(=O)N[C@@H](CCN)C(=O)N(C)CC(=O)N[C@@H](CCN)C(=O)N[C@H](C(=O)N[C@@H](CCN)C(=O)N[C@H]2CCNC(=O)[C@H]([C@@H](C)O)NC(=O)[C@H](CCN)NC(=O)[C@H](CCN)NC(=O)[C@H](CC(C)C)NC(=O)[C@@H](CC(C)C)NC(=O)[C@H](CCN)NC2=O)[C@@H](C)O)NC(=O)[C@H](C(C)C)NC(=O)[C@@H]2CCCN2C(=O)[C@H]2CCN2C(=O)[C@H]([C@@H](C)O)NC1=O)C(C)(C)C [Ex. 176] (H-[NMeW][Dab][Tle]DT[dAze]PV[Dab]Y[Dab][Sar][Dab]T[Dab][Dab][Dab][dL]L[Dab][Dab]T; lactam 4-9, 16-C) | – | – | – | – | – | – | – | – | – | 0.03125 | 0.25 | 0.0625 | 0.03125 | 0.25 | 0.5 | 0.0625 | <1 |
| CCCC[C@@H]1NC(=O)[C@@H]2CCCN2C(=O)[C@H]2CCCN2C(=O)[C@H](CO)NC(=O)[C@H](C)NC(=O)[C@H](C(C)(C)C)NC(=O)[C@@H](NC(=O)[C@H](Cc2c[nH]c3ccccc23)NC(C)=O)CSSC[C@@H](C(=O)N[C@@H](CCCN)C(=O)N[C@@H](CCN)C(=O)N[C@H]2CCNC(=O)[C@H]([C@@H](C)O)NC(=O)[C@H](CCN)NC(=O)[C@H](CCN)NC(=O)[C@H](CC(C)C)NC(=O)[C@@H](Cc3ccccc3)NC(=O)[C@H](CCN)NC2=O)NC(=O)[C@H](Cc2ccc(O)cc2)NC(=O)[C@H](CN)NC1=O [Ex. 46] (Ac-WC[Tle]AS[dP]P[Nle][Dap]YC[Orn][Dab][Dab][Dab][dF]L[Dab][Dab]T; disulfide 2-11; lactam 14-C) | – | – | – | – | – | – | – | – | <1 | 0.125 | 2 | 0.5 | 0.25 | 2 | 0.5 | 0.25 | – |
| CCCC[C@@H]1NC(=O)[C@@H]2CCCN2C(=O)[C@H]2CCCN2C(=O)[C@H](CO)NC(=O)[C@H](C)NC(=O)[C@H](C(C)(C)C)NC(=O)[C@@H](NC(=O)[C@H](Cc2c[nH]c3ccccc23)NC(=O)[C@H](CCN)NC(C)=O)CSSC[C@@H](C(=O)N[C@@H](CCCN)C(=O)N[C@@H](CCN)C(=O)N[C@H]2CCNC(=O)[C@H]([C@@H](C)O)NC(=O)[C@H](CCN)NC(=O)[C@H](CCN)NC(=O)[C@H](CC(C)C)NC(=O)[C@@H](Cc3ccccc3)NC(=O)[C@H](CCN)NC2=O)NC(=O)[C@H](Cc2ccc(O)cc2)NC(=O)[C@H](CO)NC1=O [Ex. 35] (Ac-[Dab]WC[Tle]AS[dP]P[Nle]SYC[Orn][Dab][Dab][Dab][dF]L[Dab][Dab]T; disulfide 3-12; lactam 15-C) | – | – | – | – | – | – | – | – | 1 | 0.25 | 1 | 0.5 | 0.5 | 2 | 1 | 0.25 | – |
| CC(C)C[C@@H]1NC(=O)[C@H](CCN)NC(=O)[C@@H](CCN)NC(=O)[C@H](CCC(=O)N[C@@H](CCN)C(=O)N[C@H](C(=O)N[C@@H](CCN)C(=O)N[C@H]2CCNC(=O)[C@H]([C@@H](C)O)NC(=O)[C@H](CCN)NC(=O)[C@H](CCN)NC(=O)[C@H](CC(C)C)NC(=O)[C@@H](CC(C)C)NC(=O)[C@H](CCN)NC2=O)[C@@H](C)O)NC(=O)[C@H](CCN)NC(=O)[C@H](Cc2ccc(O)cc2)NC(=O)[C@H](CO)NC(=O)[C@H](CC(C)C)NC(=O)[C@@H]2CCCN2C(=O)[C@H]2CCCN2C(=O)[C@H](Cc2ccc(O)cc2)NC(=O)[C@H]([C@@H](C)O)NC(=O)[C@H](C(C)C)NC(=O)[C@H](CCN)NC1=O [Ex. 99] (I: cyclo(LSY[Dab]E[dDab][Dab]L[Dab]VTY[dP]P) / II: [Dab]T[Dab][Dab][Dab][dL]L[Dab][Dab]T; amide I:5-II:N; lactam II:4-II:C) | – | – | – | – | – | – | – | – | – | 0.125 | 0.5 | 0.25 | 0.25 | 0.5 | 0.25 | 0.25 | 4 |
| CCCC[C@@H]1NC(=O)[C@@H]2CCCN2C(=O)[C@H]2CCCN2C(=O)[C@H](CO)NC(=O)[C@H](CO)NC(=O)[C@H](C(C)(C)C)NC(=O)[C@@H](NC(=O)[C@@H](N)Cc2c[nH]c3ccccc23)CSSC[C@@H](C(=O)N[C@@H](CCCN)C(=O)N[C@H](Cc2ccccc2)C(=O)N[C@H](CCN)C(=O)N[C@H]2CCNC(=O)[C@H]([C@@H](C)O)NC(=O)[C@H](CCN)NC(=O)[C@H](CCN)NC(=O)[C@H](CC(C)C)NC(=O)[C@@H](Cc3ccccc3)NC(=O)[C@H](CCN)NC2=O)NC(=O)[C@H](Cc2ccc(O)cc2)NC(=O)[C@H](CO)NC1=O [Ex. 105] (H-WC[Tle]SS[dP]P[Nle]SYC[Orn][dF][dDab][Dab][Dab][dF]L[Dab][Dab]T; disulfide 2-11; lactam 15-C) | – | – | – | – | – | – | – | – | 1.7 | 0.25 | 1 | 0.125 | 0.5 | 1 | 0.25 | 0.5 | – |
